Source: patent US6340694B1, “Diarylbenzopyran derivatives as cyclooxygenase-2 inhibitors” (Pacific Corporation, priority 1998, dated 2002)

Assays:
edema in mouse's ear = test: Depressant action on edema in mouse's ear (TPA-induced, myeloperoxidase); assay type: in vivo, ICR mouse; details: topical on ear, TPA 25 μg, 5 hours
Procedure: (§1) Regarding the compounds in some of the above Examples and indomethacin, depressant action on edema in mouse's ear and depressant action on edema in mouse's foot being induced by carrageenan are being measured by the following 2 methods. And the results of the depressant action on edema in mouse's ear and depressant action on edema in mouse's foot being induced by carrageenan are shown in Table 5.
1. Measurement of Depressant Action on Edama in Mouse's Ear
At 30 minutes after coating the left ear of ICR mouse, weighing 20 g, with a solution of appropriate amount of sample in 20 μl of mixed solvent DMSO:acetone(1:9), 25 μg of TPA(tetradecanoylphorbol acetate) was coated on both ears. The determination of depressant action on edama was made in 5 hours later by the number of neutral granulocyte gathering in the ear after inducing TPA inflammation. The number of neutral granulocyte was estimated by measuring the activation of myeloperoxidase.

COX-2 = biological target: T1, COX-2 (Mus musculus, UniProt Q05769); test: Evaluation of COX-2's inhibition efficacy (PGE2 radioimmuno assay, LPS-induced, aspirin-pretreated peritoneal macrophages); assay type: cell-based, C57BL/6 mouse; details: for inhibition at 0.1 µg/mL: 0.1 μg/ml; for inhibition at 1 µg/mL: 1 μg/ml; for inhibition at 10 µg/mL: 10 μg/ml
T1 construct: endogenous in cells; host or cells: peritoneal macrophages of C57BL/6 mouse, aspirin-pretreated, LPS-induced
T1 sequence (Q05769 18-604): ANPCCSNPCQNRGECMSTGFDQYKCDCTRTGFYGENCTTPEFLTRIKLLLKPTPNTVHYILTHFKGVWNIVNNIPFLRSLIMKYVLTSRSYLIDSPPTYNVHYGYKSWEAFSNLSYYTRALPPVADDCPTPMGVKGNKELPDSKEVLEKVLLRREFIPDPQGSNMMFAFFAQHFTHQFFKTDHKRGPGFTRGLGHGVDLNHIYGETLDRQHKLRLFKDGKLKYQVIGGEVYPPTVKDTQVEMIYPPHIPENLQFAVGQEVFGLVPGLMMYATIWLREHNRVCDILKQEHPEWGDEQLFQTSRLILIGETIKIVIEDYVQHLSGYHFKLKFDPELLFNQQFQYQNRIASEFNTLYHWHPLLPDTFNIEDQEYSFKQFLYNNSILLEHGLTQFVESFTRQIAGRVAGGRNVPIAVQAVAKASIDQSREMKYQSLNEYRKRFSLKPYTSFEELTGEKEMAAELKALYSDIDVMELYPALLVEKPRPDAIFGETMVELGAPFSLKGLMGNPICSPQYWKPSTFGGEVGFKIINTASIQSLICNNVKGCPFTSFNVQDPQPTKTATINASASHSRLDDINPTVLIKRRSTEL
In short: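 C57BL/6 mouse peritoneal macrophages, adhered 2 h at 37 °C, were LPS-stimulated to induce COX-2. Cells were then treated 10 min with compound, followed by 10 min with 10 μM arachidonic acid (final). PGE2 in the supernatant was quantified by radioimmunoassay.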

COX-1 = biological target: T2, COX-1 (Mus musculus, UniProt P22437); test: Evaluation of COX-1's inhibition efficacy (macrophages without aspirin and LPS pre-treatment); assay type: cell-based, C57BL/6 mouse; details: for inhibition at 10 µg/mL: 10 μg/ml; for inhibition at 1 µg/mL: 1 μg/ml
T2 construct: there is no pre-treatment of aspirin and LPS in the adhesion of macrophage; endogenous in cells; host or cells: peritoneal macrophages of C57BL/6 mouse, without aspirin and LPS pre-treatment
T2 sequence (P22437 27-602): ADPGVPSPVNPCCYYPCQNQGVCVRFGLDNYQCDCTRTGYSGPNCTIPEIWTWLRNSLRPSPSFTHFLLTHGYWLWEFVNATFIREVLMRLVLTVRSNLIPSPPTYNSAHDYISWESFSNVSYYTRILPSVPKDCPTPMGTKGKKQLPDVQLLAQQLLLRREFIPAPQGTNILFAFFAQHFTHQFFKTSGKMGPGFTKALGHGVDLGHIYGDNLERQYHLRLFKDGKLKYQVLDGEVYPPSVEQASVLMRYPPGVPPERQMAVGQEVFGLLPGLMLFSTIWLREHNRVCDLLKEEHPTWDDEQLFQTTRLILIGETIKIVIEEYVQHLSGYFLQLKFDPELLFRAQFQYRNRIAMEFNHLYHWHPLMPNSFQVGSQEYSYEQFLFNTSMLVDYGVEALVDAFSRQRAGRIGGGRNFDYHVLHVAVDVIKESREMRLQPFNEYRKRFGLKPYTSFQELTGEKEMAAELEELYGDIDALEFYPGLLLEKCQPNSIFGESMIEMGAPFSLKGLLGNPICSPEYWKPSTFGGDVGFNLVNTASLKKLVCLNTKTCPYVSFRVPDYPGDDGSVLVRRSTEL
Procedure: Regarding the compounds in the above Examples and indomethacin, the inhibition efficacy of COX-2 and COX-1 are being measured by the following two methods.
After cleaning C57BL/6 mouse's abdomen by 70% EtOH, the skin of mouse's abdomen was eliminated cautiously not to harm peritomeum and 5 ml of cold PBS was poured into the abdominal cavity and in certain times later macrophage-bleeding abdominal-liquid was collected by syringe. By adding RPMI-1640 badge containing penicillin(100 unit/mt) and streptomycin([…]) to cell pellet obtained by centrifugation of collected liquid about 5 minutes in 1500 rpm, it was disperesed and also COX-1 existing in the cell was inactivated by treating with 500 μM aspirin. After putting 1 ml cell suspension having cell number of 1×10^6 cells/mu into each 24-well microtiter plates, macrophages were adhered to the bottom of plate by culturing in the condition of 5% CO2/95% O2, at a temperature of 37° C. for 2 hours. Other cells not being adhered to were eliminated by washing two times with PBS. The purity of macrophages obtained through this process was identified by differential counting. After adding RPMI-1640 badge(normally 5×10^5 cell/ml) containing 3% right fetal blood serum to macrophage and treating it with LPS(lipopolysaccharide) to make final concentration as 10 μg/ml, it was cultured in the condition of 5% CO2, at a temperature of 37° C. for 16 hours. After inducing COX-2 by LPS, the cell culture medium was eliminated and macrophages was washed two times with PBS. And 1 ml of RRPI-1640 badge was added to each well again and after treating them with sample with appropriate concentration, they were cultured at a temperature of 37i É for 10 minutes. And then treated them with arachidonic acid to make their final concentration as 10 μM and cultured them additional 10 minutes, all the supernatant liquid of reaction was obtained. The amount of PGE2 produced in the supernatant liquid of reaction was determined by the PGE2 radioimmuno assay. The 100% COX-2's activation is referenced by the difference of the amount of PGE2 produced in the supernatant liquid of reaction between with 10 μM arachidonic acid treatment and without 10 μM arachidonic acid treatment.
2. Evaluation of COX-1's Inhibition Efficacy
Following the same procedure as the above evaluation of COX-2's inhibition efficacy, but there is no pre-treatment of aspirin and LPS in the adhesion of macrophage.

[1] = system: edema in mouse's foot induced by carrageenan; test: Depressant action on edema in mouse's foot induced by carrageenan; assay type: in vivo, Male Sprague-Dawley rat; details: po; for inhibition in vivo at 30 mg/kg: 30 mg/kg p.o.
Procedure: as §1
2. Measurement of Depressant Action on Edama in Mouse's Foot Induced by Carrageenan
At 1 hour after oral administering to Male-Sprague-Dawley-white mouse, weighing 150˜200 g, with a suspended solution of appropriate amount of sample in 0.5% of carboxymethyl cellulose and 0.2% of TWEN solution, edema on the right foot of mouse was induced by injecting 0.1 ml(1%) of carrageenan-saline solution. Right after the inducement of edema by carrageenan and 3 hours later, the edema rate was estimated by measuring white mouse's foot volume with Displacement Plethysmometer(Ugo Basile, Italy). Carrageenan injection Drug was administered 1 hour before the carrageenan injection. Depressant rate of edema is produced by the following equation 1.
% Depressant rate of edema=(1 ? Vtreated group/ ? Vcontrol group)×100 ? V: change of foot volume [Equation 1]

[2] = 3 h, read-out: depressant rate of edema rate induced by carrageenan (oral administration), % depression

SMILES	melting point [°C]	depressant rate of ear edema, ED50 (edema in mouse's ear)	inhibition at 0.1 µg/mL (COX-2) [%]	inhibition at 1 µg/mL (COX-2) [%]	inhibition at 10 µg/mL (COX-2) [%]	inhibition at 10 µg/mL (COX-1) [%]	inhibition in vivo at 30 mg/kg [1, 2] [%]	inhibition in vivo at 50 mg/kg ([1]; 3 h, 50 mg/kg p.o., read-out: depressant rate of edema rate induced by carrageenan (oral administration), % depression) [%]	inhibition in vivo at 3 mg/kg ([1]; 3 h, 3 mg/kg p.o., read-out: depressant rate of edema rate induced by carrageenan (oral administration), % depression) [%]	inhibition at 1 µg/mL (COX-1) [%]	ED50 ([1]; 3 hours after carrageenan, read-out: depressant rate of edema rate induced by carrageenan (oral administration), ED50) [mg/kg]
COc1ccc(-c2c(-c3ccc(S(C)(=O)=O)cc3)oc3ccccc3c2=O)cc1 [Example 10, 3-(4-Methoxyphenyl)-2-(4-(methylsulfonyl)phenyl)-4H-1-benzopyran-4-one]	212 to 213	0.6 mg/ear, ED50	14	67	86	< 5	–	–	–	–	–
CS(=O)(=O)c1ccc(-c2oc3ccccc3c(=O)c2-c2ccc(Cl)c(Cl)c2)cc1 [Example 11, 3-(3,4-Dichlorophenyl)-2-(4-(methylsulfonyl)phenyl)-4H-1-benzopyran-4-one]	164 to 165	–	46	89	–	< 5	17	–	–	–	–
CS(=O)(=O)c1ccc(-c2oc3ccccc3c(=O)c2-c2ccccc2F)cc1 [Example 12, 3-(2-Fluorophenyl)-2-(4-(methylsulfonyl)phenyl)-4H-1-benzopyran-4-one]	–	0.4 mg/ear, ED50	–	–	–	–	20	–	–	–	–
CS(=O)(=O)c1ccc(-c2oc3ccccc3c(=O)c2-c2cccnc2)cc1 [Example 15, 2-(4-(Methylsulfonyl)phenyl)-3-(3-pyridinyl)-4H-1-benzopyran-4-one]	220 to 221	–	–	83	90	13	41	–	–	–	–
CS(=O)(=O)c1ccc(-c2oc3ccccc3c(=O)c2-c2ccc(F)c(Cl)c2)cc1 [Example 26, 3-(3-Chloro-4-fluorophenyl)-2-(4-(methylsulfonyl)phenyl)-4H-1-benzopyran-4-one]	–	0.6 mg/ear, ED50	–	–	–	–	–	23	–	–	–
CS(=O)(=O)c1ccc(-c2oc3ccccc3c(=O)c2-c2ccc(Br)cc2)cc1 [Example 28, 3-(4-Bromophenyl)-2-(4-(methylsulfonyl)phenyl)-4H-1-benzopyran-4-one]	–	0.8 mg/ear, ED50	–	–	–	–	–	–	–	–	–
CS(=O)(=O)c1ccc(-c2oc3ccc(F)cc3c(=O)c2-c2cccnc2)cc1 [Example 34, 6-Fluoro-2-(4-(methylsulfonyl)phenyl)-3-(3-pyridinyl)-4H-1-benzopyran-4-one]	–	–	–	66	78	12	–	–	23	–	–
CS(=O)(=O)c1ccc(-c2oc3ccccc3c(=S)c2-c2ccccc2)cc1 [Example 37, 2-(4-(Methylsulfonyl)phenyl)-3-phenyl-4H-1-benzopyran-4-thione]	204 to 206	–	47	76	88	< 5	16	–	–	–	–
COc1ccc(-c2c(-c3ccc(S(N)(=O)=O)cc3)oc3ccccc3c2=O)cc1 [Example 55, 2-(4-(Aminosulfonyl)phenyl)-3-(4-methoxyphenyl)-4H-1-benzopyran-4-one]	252 to 254	–	–	90	100	84	–	–	–	66	–
NS(=O)(=O)c1ccc(-c2oc3ccccc3c(=O)c2-c2ccc(Cl)c(Cl)c2)cc1 [Example 57, 2-(4-(Aminosulfonyl)phenyl)-3-(3,4-dichlorophenyl)-4H-1-benzopyran-4-one]	215 to 217	–	48	96	–	75	–	–	–	–	–
NS(=O)(=O)c1ccc(-c2oc3ccccc3c(=O)c2-c2ccccc2F)cc1 [Example 58, 2-(4-(Aminosulfonyl)phenyl)-3-(2-fluorophenyl)-4H-1-benzopyran-4-one]	215 to 217	–	–	63	96	60	–	–	–	34	–
COc1ccc2c(c1)c(CC(=O)O)c(C)n2C(=O)c1ccc(Cl)cc1 [indomethacine, reference compound]	–	0.4 mg/ear, ED50	–	–	–	–	–	–	–	–	4.3
